Reference: US20080125432A1 (Devgen NV, priority 2004, published 2008)

Target: T1, Ito (Kv4.3) (Homo sapiens, UniProt Q9UK17)
T1 construct: endogenous in cells; host or cells: freshly isolated human atrial myocytes
T1 sequence (Q9UK17 1-655): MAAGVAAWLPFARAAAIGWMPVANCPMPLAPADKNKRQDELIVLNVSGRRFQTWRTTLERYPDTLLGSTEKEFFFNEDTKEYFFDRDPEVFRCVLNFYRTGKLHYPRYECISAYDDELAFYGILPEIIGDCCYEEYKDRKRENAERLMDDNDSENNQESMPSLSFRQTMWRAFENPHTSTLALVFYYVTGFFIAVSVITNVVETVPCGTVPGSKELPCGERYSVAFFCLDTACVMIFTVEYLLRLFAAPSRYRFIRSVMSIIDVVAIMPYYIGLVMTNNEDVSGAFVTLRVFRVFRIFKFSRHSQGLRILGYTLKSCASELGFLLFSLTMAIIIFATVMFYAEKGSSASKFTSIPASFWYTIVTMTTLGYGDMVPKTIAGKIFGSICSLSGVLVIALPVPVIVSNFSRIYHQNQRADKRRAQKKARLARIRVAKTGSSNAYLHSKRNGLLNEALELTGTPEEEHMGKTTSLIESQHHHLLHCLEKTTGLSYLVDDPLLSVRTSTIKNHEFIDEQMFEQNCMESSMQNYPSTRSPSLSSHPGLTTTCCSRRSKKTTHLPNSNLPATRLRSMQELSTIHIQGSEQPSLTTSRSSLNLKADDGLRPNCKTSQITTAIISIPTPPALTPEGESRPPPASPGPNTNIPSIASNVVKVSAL
T1 sequence (Q9NS61 1-270 partner): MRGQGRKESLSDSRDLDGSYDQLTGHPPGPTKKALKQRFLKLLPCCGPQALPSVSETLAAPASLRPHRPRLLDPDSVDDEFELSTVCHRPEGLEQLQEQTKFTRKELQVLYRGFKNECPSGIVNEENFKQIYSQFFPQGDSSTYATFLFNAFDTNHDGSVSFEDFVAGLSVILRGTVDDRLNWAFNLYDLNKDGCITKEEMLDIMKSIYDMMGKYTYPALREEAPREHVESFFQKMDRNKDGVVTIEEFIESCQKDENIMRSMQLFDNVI
Experiment: Whole-cell patch clamp in human atrial myocytes: Ito
Type: cell-based
Description: The blocking profile of the compounds of the invention is determined on the following channels of the human atrial myocytes: INa, Ito, Isus and IK1 channel currents.
Human atrial myocytes: Myocytes were prepared from specimens with grossly normal anatomical aspect, excised from hearts of patients with normal P-wave electrocardiogram, undergoing bypass surgery. Human atrial sample were obtained following approval by the ethical committee. […]
Experiments were performed at room temperature (20-25° C.) for INa and at 32-34° C. for Ito, Isus, IK1. Currents were measured using the whole-cell variant of the patch clamp method. […]
After rupture of the cell membrane to enter the whole-cell mode, current amplitude and kinetics were allowed to stabilize for 3-7 min before initiating the experimental procedure. K^+ currents recorded from human atrial myocytes were elicited by a 500 ms pulse to +60 mV from a holding potential of −50 mV for Ito and Isus. Ito was measured as a peak current amplitude whereas Isus as a current present at the end of the 500 ms voltage pulse. In addition, the area under the curve, before and after compound, were measured over the course of the pulse period. […]

COc1ccccc1Nc1nc(C)c(C(=O)N[C@H]2CCC[C@@H]2OCc2ccccc2)s1 [Compound 68, 2-(2-methoxy-phenylamino)-4-methyl-thiazole-5-carboxylic acid (1S,2S)-2-(benzyloxycyclopent-1-yl) amide]
Block at 10 μM in %: Ito (Kv4.3) (10 μM, n = 3 cells): 82.0 ± 3.6% | IC50 (dose-response analysis, read-out: IC50 on the ITO current): 800 nM
